Results: PubChem BioAssay AID248 (DTP/NCI, 2004)
“And” between values parts separate entries of the source, which are not always exact repeats. Equal values may be shown once. Inconclusive results and toxic doses are left out. Rule as the data show it: active = T/C of 150% or more; inactive = T/C below 125%.

System: L1210 leukemia ip in BDF1 mice, survival T/C
Assay: NCI In Vivo Anticancer Drug Screen. Data for tumor model L1210 Leukemia (intraperitoneal) in B6D2F1 (BDF1) mice
Conditions: endpoint: mean survival time, higher = longer survival
Method in brief: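 In this screen, tumor-bearing mice given compound are compared to those given vehicle, and their survival values are reported as a treated-to-control quotient.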

[1] = dose: 50.0 mg/kg/injection, schedule: Q01DX001 (ip), vehicle: carboxymethylcellulose (CMC)
[2] = dose: 100.0 mg/kg/injection, schedule: Q01DX001 (ip), vehicle: carboxymethylcellulose (CMC)
[3] = dose: 200.0 mg/kg/injection, schedule: Q01DX001 (ip), vehicle: carboxymethylcellulose (CMC)
[4] = dose: 400.0 mg/kg/injection, schedule: Q01DX001 (ip), vehicle: carboxymethylcellulose (CMC)
[5] = dose: 100.0 mg/kg/injection, schedule: Q01DX009 (ip), vehicle: Klucel (hydroxypropylcellulose) (HPC)
[6] = dose: 200.0 mg/kg/injection, schedule: Q01DX009 (ip), vehicle: Klucel (hydroxypropylcellulose) (HPC)
[7] = dose: 100.0 mg/kg/injection, schedule: Q04DX003 (ip), vehicle: saline
[8] = dose: 200.0 mg/kg/injection, schedule: Q04DX003 (ip), vehicle: saline
[9] = dose: 100.0 mg/kg/injection, schedule: Q01DX009 (ip), vehicle: saline with Tween-80
[10] = dose: 100.0 mg/kg/injection, schedule: Q04DX003 (ip), vehicle: saline with Tween-80
[11] = dose: 200.0 mg/kg/injection, schedule: Q01DX009 (ip), vehicle: saline with Tween-80
[12] = dose: 200.0 mg/kg/injection, schedule: Q04DX003 (ip), vehicle: saline with Tween-80
[13] = dose: 400.0 mg/kg/injection, schedule: Q04DX003 (ip), vehicle: saline with Tween-80
[14] = dose: 400.0 mg/kg/injection, schedule: Q01DX009 (ip), vehicle: Klucel (hydroxypropylcellulose) (HPC)

Measured: T/C

CCOC(=O)C1CCC(=O)O1 (stereo not given)
inactive: dose: 100.0 mg/kg/injection, schedule: Q04DX002 (ip), vehicle: saline 104 % of control | dose: 200.0 mg/kg/injection, schedule: Q04DX002 (ip), vehicle: saline 101 % of control | dose: 400.0 mg/kg/injection, schedule: Q04DX002 (ip), vehicle: saline 97 % of control

NC(=O)C1(Nc2ccc(-c3ccccc3)cc2)CCCC1
inactive: [1] 96 % of control | [2] 96 % of control | [3] 88 % of control | [4] 90 % of control

CC(C)CP(=O)(CC(C)C)CC(C)C
inactive: dose: 6.25 mg/kg/injection, schedule: Q04DX003 (ip), vehicle: saline with Tween-80 98 % of control

O=C(OCc1ccccc1CN1CCCCC1)c1ccc([N+](=O)[O-])cc1Cl
inactive: dose: 100.0 mg/kg/injection, schedule: Q04DX002 (ip), vehicle: Klucel (hydroxypropylcellulose) (HPC) 98 % of control | dose: 200.0 mg/kg/injection, schedule: Q04DX002 (ip), vehicle: Klucel (hydroxypropylcellulose) (HPC) 98 % of control | dose: 400.0 mg/kg/injection, schedule: Q04DX002 (ip), vehicle: Klucel (hydroxypropylcellulose) (HPC) 91 % of control

O=C1C=CC(c2ccccc2)(c2ccccc2)C=C1
inactive: dose: 25.0 mg/kg/injection, schedule: Q04DX002 (ip), vehicle: saline with Tween-80 93 % of control | dose: 50.0 mg/kg/injection, schedule: Q04DX002 (ip), vehicle: saline with Tween-80 101 % of control | dose: 100.0 mg/kg/injection, schedule: Q04DX002 (ip), vehicle: saline with Tween-80 96 % of control

c1ccc2c(c1)ccc1cc3cnccc3cc12
inactive: dose: 100.0 mg/kg/injection, schedule: Q01DX001 (ip), vehicle: saline 95 % of control | dose: 200.0 mg/kg/injection, schedule: Q01DX001 (ip), vehicle: saline 103 % of control | dose: 400.0 mg/kg/injection, schedule: Q01DX001 (ip), vehicle: saline 101 % of control

O=C(CCCCc1ccc([N+](=O)[O-])cc1)Nc1ccc(S(=O)(=O)F)cc1
inactive: dose: 50.0 mg/kg/injection, schedule: Q01DX009 (ip), vehicle: Klucel (hydroxypropylcellulose) (HPC) 102 % of control | [5] 100 % of control | [6] 88 % of control

Cc1n[nH]c(=S)n1C
inactive: [7] 108 % of control | [8] 113 % of control

Cc1c2cnccc2c(C)c2c1c1ccccc1n2CCCN1C(=O)c2ccccc2C1=O
inactive: dose: 50.0 mg/kg/injection, schedule: Q04DX003 (ip), vehicle: saline with Tween-80 100 % of control | [9] 104 % of control | [10] 97 % of control | dose: 150.0 mg/kg/injection, schedule: Q01DX001 (oral), vehicle: saline with Tween-80 105 % of control | [11] 102 % of control and 107 % of control | [12] 101 % of control | dose: 300.0 mg/kg/injection, schedule: Q01DX001 (oral), vehicle: saline with Tween-80 112 % of control | dose: 400.0 mg/kg/injection, schedule: Q01DX009 (ip), vehicle: saline with Tween-80 111 % of control and 120 % of control | [13] 117 % of control | dose: 600.0 mg/kg/injection, schedule: Q01DX001 (oral), vehicle: saline with Tween-80 112 % of control | dose: 600.0 mg/kg/injection, schedule: Q01DX009 (ip), vehicle: saline with Tween-80 121 % of control | dose: 1200.0 mg/kg/injection, schedule: Q01DX001 (oral), vehicle: saline with Tween-80 121 % of control

O=C1NCCCC1O (stereo not given)
inactive: [1] 94 % of control | [2] 89 % of control | [3] 105 % of control | [4] 103 % of control

Cc1nc(N)[nH]c(=O)c1CCCNc1ccc(/C=C/C2(CCl)OCCO2)cc1
inactive: dose: 50.0 mg/kg/injection, schedule: Q01DX Z (ip), vehicle: carboxymethylcellulose (CMC) 92 % of control | dose: 200.0 mg/kg/injection, schedule: Q01DX Z (ip), vehicle: carboxymethylcellulose (CMC) 97 % of control | dose: 400.0 mg/kg/injection, schedule: Q01DX Z (ip), vehicle: carboxymethylcellulose (CMC) 94 % of control

COCCCN=C(N)C(N)=NCCCOC
inactive: dose: 100.0 mg/kg/injection, schedule: Q01DX009 (ip), vehicle: saline 99 % of control | [7] 100 % of control and 98 % of control | dose: 200.0 mg/kg/injection, schedule: Q01DX009 (ip), vehicle: saline 98 % of control | [8] 93 % of control and 101 % of control | dose: 400.0 mg/kg/injection, schedule: Q01DX009 (ip), vehicle: saline 98 % of control | dose: 400.0 mg/kg/injection, schedule: Q04DX003 (ip), vehicle: saline 93 % of control and 95 % of control

CCOc1ccccc1NC(=O)Oc1cc(C)c(Cl)c(C)c1
inactive: [5] 104 % of control | [6] 98 % of control | [14] 100 % of control

Cc1c(C(C)c2[nH]c3ccccc3c2C)[nH]c2ccccc12
inactive: dose: 50.0 mg/kg/injection, schedule: Q01DX001 (ip), vehicle: other 98 % of control | dose: 100.0 mg/kg/injection, schedule: Q01DX001 (ip), vehicle: other 102 % of control | dose: 200.0 mg/kg/injection, schedule: Q01DX001 (ip), vehicle: other 91 % of control | dose: 400.0 mg/kg/injection, schedule: Q01DX001 (ip), vehicle: other 93 % of control

CN(C)c1ccccc1C(=O)N/N=C/c1ccc(F)cc1
inactive: [5] 95 % of control | dose: 100.0 mg/kg/injection, schedule: Q04DX003 (ip), vehicle: Klucel (hydroxypropylcellulose) (HPC) 99 % of control | [6] 93 % of control | dose: 200.0 mg/kg/injection, schedule: Q04DX003 (ip), vehicle: Klucel (hydroxypropylcellulose) (HPC) 99 % of control | [14] 96 % of control | dose: 400.0 mg/kg/injection, schedule: Q04DX003 (ip), vehicle: Klucel (hydroxypropylcellulose) (HPC) 93 % of control

COc1ccc2c(c1)CC/C(=C\c1cccnc1)C2=O
inactive: dose: 100.0 mg/kg/injection, schedule: Q04DX003 (ip), vehicle: carboxymethylcellulose (CMC) 110 % of control | dose: 200.0 mg/kg/injection, schedule: Q04DX003 (ip), vehicle: carboxymethylcellulose (CMC) 96 % of control | dose: 400.0 mg/kg/injection, schedule: Q04DX003 (ip), vehicle: carboxymethylcellulose (CMC) 94 % of control

O=S(=O)(O)SCNCNCCSCc1ccccc1
inactive: dose: 12.5 mg/kg/injection, schedule: Q04DX002 (ip), vehicle: Klucel (hydroxypropylcellulose) (HPC) 91 % of control | dose: 25.0 mg/kg/injection, schedule: Q04DX002 (ip), vehicle: Klucel (hydroxypropylcellulose) (HPC) 112 % of control | dose: 50.0 mg/kg/injection, schedule: Q04DX002 (ip), vehicle: Klucel (hydroxypropylcellulose) (HPC) 91 % of control

CCCCOc1cc(C(=O)NCCN(CC)CC)c2ccccc2n1
inactive: dose: 6.25 mg/kg/injection, schedule: Q04DX003 (ip), vehicle: saline 98 % of control | dose: 12.5 mg/kg/injection, schedule: Q04DX003 (ip), vehicle: saline 98 % of control | dose: 25.0 mg/kg/injection, schedule: Q04DX003 (ip), vehicle: saline 107 % of control

Clc1ccc(N/N=C(\Oc2ccccc2)c2ccccc2)cc1
inactive: [10] 104 % of control | [13] 98 % of control

Cc1ccc(-n2c(O)c(N=Nc3ccc(Cl)cc3)c(=O)n(-c3ccc(I)cc3)c2=S)cc1
inactive: dose: 37.5 mg/kg/injection, schedule: Q01DX001 (ip), vehicle: Klucel (hydroxypropylcellulose) (HPC) 92 % of control | dose: 75.0 mg/kg/injection, schedule: Q01DX001 (ip), vehicle: Klucel (hydroxypropylcellulose) (HPC) 97 % of control | dose: 150.0 mg/kg/injection, schedule: Q01DX001 (ip), vehicle: Klucel (hydroxypropylcellulose) (HPC) 100 % of control

CCC/C=C\COc1ccc(C(=O)OCC)cc1
inactive: dose: 100.0 mg/kg/injection, schedule: Q04DX002 (ip), vehicle: other 111 % of control | dose: 200.0 mg/kg/injection, schedule: Q04DX002 (ip), vehicle: other 108 % of control | dose: 400.0 mg/kg/injection, schedule: Q04DX002 (ip), vehicle: other 97 % of control

CC(C)=CCCC(C)C/C=N\O (stereo not given)
inactive: [9] 101 % of control | [10] 100 % of control | [11] 104 % of control | [12] 103 % of control | [13] 106 % of control

COC12CC(COC(=O)c3cncc(Br)c3)CN(C)C1Cc1cn(C)c3cccc2c13 (stereo not given)
inactive: [5] 100 % of control | [6] 116 % of control | [14] 113 % of control
